Results on one molecule are retold here after patent EP4725490A1, “EED INHIBITOR SOLID DISPERSION, ORAL FORMULATION COMPRISING SAME, AND PREPARATION METHOD THEREFOR” (Ascentage Pharma (Suzhou) Co., Ltd., priority 2023, dated 2024).

Series [1] in a line: Solubility of compound A in aqueous buffer. It is filed as physicochemical. The note with it: pH 1.2, aqueous buffer, thermodynamic from solid, pH of 1.2 to 7.4, 37 °C/24 h. The source says:
The starting material of compound A is an anhydrous crystal powder with slight hygroscopicity, which is almost insoluble in water. […] For such drugs with poor water solubility, the dissolution of the drugs in gastrointestinal fluids is the rate-limiting step of their bioavailability, and poor water solubility will necessarily lead to low dissolution and thus lower bioavailability. Therefore, if the bioavailability of the drug is to be improved, the dosage form, formula composition, and process need to be specially designed to change the dispersion state of the drug and promote its dissolution in the gastrointestinal tract.

The nature of series [2]: Solubility of compound A in various solvents (standard solubility determination). The format is physicochemical. The note with it: organic solvent or mixture, 25 °C. The method, then:
The solubility (25 °C) of the active ingredient compound A in various solvents was determined using a standard solubility determination method well known in the art.

SMILES strings stand for the structures. ≈ marks a conversion by molar mass, not a printed value.

As for `CC(C)N1Cc2cc(C(F)(F)F)ncc2-c2cnc(NCc3c(F)ccc4c3CCO4)n3cnc(c23)C1=O` [compound A, 12-(((5-fluoro-2,3-dihydrobenzofuran-4-yl)methyl)amino)-4-isopropyl-7-(trifluoromethyl)-4,5-dihydro-3H-2,4,8,11,12a-pentaazabenzo[4,5]cycloocta[1,2,3-cd]inden-3-one], the solubility at 24 h in series [1] is 0.08 to 0.39 µg/mL (≈ 0.000152 to 0.000741 mM). Moreover, the solubility in series [2] (Acetonitrile) came out at 1.2 mg/mL (≈ 2.28 mM); in series [2] (DMF) it was 33 mg/mL (≈ 62.7 mM); in series [2] (DMSO), 33 mg/mL (≈ 62.7 mM); in series [2] (Dichloromethane), 10 mg/mL (≈ 19 mM); in series [2] (Ethanol), 1.1 mg/mL (≈ 2.09 mM); in series [2] (Methanol: dichloromethane (1:1)) it was 28.5 mg/mL (≈ 54.1 mM). Moreover, the solubility stood at 50 mg/mL (≈ 95 mM) in series [2] (Methanol: dichloromethane (1:2)); 83 mg/mL (≈ 158 mM) in series [2] (Methanol: dichloromethane (1:3)); 83 mg/mL (≈ 158 mM) in series [2] (Methanol: dichloromethane (1:4)); 83 mg/mL (≈ 158 mM) in series [2] (Methanol: dichloromethane (1:5)); 14.3 mg/mL (≈ 27.2 mM) in series [2] (Methanol: dichloromethane (2:1)); 7.7 mg/mL (≈ 14.6 mM) in series [2] (Methanol: dichloromethane (3:1)). Also, the solubility in series [2] (Methanol) worked out at 4.3 mg/mL (≈ 8.17 mM); in series [2] (N-methylpyridine), 11 mg/mL (≈ 20.9 mM); in series [2] (Tetrahydrofuran) it was 2 mg/mL (≈ 3.8 mM); in series [2] (Toluene), 3.3 mg/mL (≈ 6.27 mM).

The solubility is the dissolved amount per volume that the medium holds.
